US7244692B2, “Substituted benzoylcyclohexane diones for use as herbicides” (Bayer Aktiengesellschaft, priority 1999, dated 2007)
Read-outs that look alike come from different tables or passages of the source.

What was measured:
[1] = logP determination by HPLC, reverse-phase column (C 18), EEC Directive 79/831 Annex V.A8; assay type: physicochemical
Description: Temperature: 43° C. • (a) Mobile phases for the determination in the acidic range: 0.1% aqueous phosphoric acid, acetonitrile; linear gradient from 10% acetonitrile to 90% acetonitrile—the corresponding test results in Table 1 are labelled ^a). • (b) Mobile phases for the determination in the neutral range: 0.01 molar aqueous phosphate buffer solution, acetonitrile; linear gradient from 10% acetonitrile to 90% acetonitrile—the corresponding test results in Table 1 are labelled ^b).

weeds [2] = test: Pre-Emergence Test (Example A); assay type: in vivo; conditions: soil sprayed 24 hours after sowing, rated after three weeks
Description: (§1) • Solvent: 5 parts by weight of acetone • Emulsifier: 1 part by weight of alkylaryl polyglycol ether
(§2) To produce a suitable preparation of active compound, 1 part by weight of active compound is mixed with the stated amount of solvent, the stated amount of emulsifier is added and the concentrate is diluted with water to the desired concentration.
Seeds of the test plants are sown in normal soil. After 24 hours, the soil is sprayed with the preparation of active compound such that the particular amount of active compound desired is applied per unit area. The concentration of active compound in the spray liquor is chosen such that the particular amount of active compound desired is applied in 1000 litres of water per hectare.
After three weeks, the degree of damage to the plants is rated in % damage in comparison to the development of the untreated control. The figures denote: • 0%=no effect (like untreated control) • 100%=total destruction

weeds [3] = test: Post-Emergence Test (Example B); assay type: in vivo; conditions: test plants of 5-15 cm sprayed, rated after three weeks
Description: as §1, §2
Test plants of a height of 5-15 cm are sprayed with the preparation of active compound such that the particular amounts of active compound desired are applied per unit area. The concentration of the spray liquor is chosen such that the particular amounts of active compound desired are applied in 1000 l of water/ha.
After three weeks, the degree of damage to the plants is rated in % damage in comparison to the development of the untreated control.
The figures denote: • 0%=no effect (like untreated control) • 100%=total destruction

[4] = labelled a): acidic range, 0.1% aqueous phosphoric acid/acetonitrile, linear gradient 10% to 90% acetonitrile, 43° C.
[5] = no a)/b) label printed, mobile phase not given

logP [1, 4] | logP [1] | SMILES | activity against weeds (degree of damage) (weeds [3]) | further results
logP = 2.05^a) |  | COc1c(C(=O)C2C(=O)CCCC2=O)ccc(Cl)c1CN1CCCN(C)C1=O [Example 18] | strong activity against weeds | activity against weeds (degree of damage) (weeds [2]): strong activity against weeds
logP = 2.67^a) |  | CN1CCN(Cc2c(Cl)ccc(C(=O)C3C(=O)CC(C)(C)CC3=O)c2Cl)C1=O [Example 8] | strong activity against weeds | activity against weeds (degree of damage) (weeds [2]): strong activity against weeds
logP = 2.89^a) |  | CN1CCCN(Cc2c(Cl)ccc(C(=O)C3C(=O)CCC(C)(C)C3=O)c2Cl)C1=O (stereo not shown) [Example 4] | strong activity against weeds | activity against weeds (degree of damage) (weeds [2]): strong activity against weeds
 | logP = 1.09 | CCN1CCCCNC1=O [(VI-30)] |  | 
 | logP = 2.41^a) | CN1CCN(Cc2cc(C(F)(F)F)ccc2C(=O)C2C(=O)CCCC2=O)C1=O [Example 51] |  | 
logP = 2.43^a) |  | CC1CC(=O)C(C(=O)c2ccc(Cl)c(CN3CCN(C)C3=O)c2Cl)C(=O)C1 (stereo not shown) [Example 7] | strong activity against weeds | activity against weeds (degree of damage) (weeds [2]): strong activity against weeds
logP = 2.79^a) |  | CN1CCCN(Cc2c(Cl)ccc(C(=O)C3C(=O)CC(C)(C)CC3=O)c2Cl)C1=O [Example 3] | strong activity against weeds | activity against weeds (degree of damage) (weeds [2]): strong activity against weeds
 | logP = 1.91^a) | CCN1CCN(Cc2c(S(C)(=O)=O)ccc(C(=O)C3C(=O)CCCC3=O)c2Cl)C1=O [Example 23] |  | 
 | logP = 3.15^a) | CCN1CCN(Cc2c(Cl)ccc(C(=O)C3C(=O)CC4(CCC4)CC3=O)c2Cl)C1=O [Example 21] |  | 
logP = 3.09^a) |  | CC(C)C1CC(=O)C(C(=O)c2ccc(Cl)c(CN3CCN(C)C3=O)c2Cl)C(=O)C1 (stereo not shown) [Example 10] | strong activity against weeds | 
 |  | COC(=O)c1ccc(Cl)c(CN2CCN(C(C)C)C2=O)c1Cl [IV-13] |  | logP [1, 5]: logP = 2.56
 | logP = 1.87^a) | COC(=O)c1ccc(S(C)(=O)=O)cc1CBr [V-6] |  | 
logP = 2.96^a) |  | CCN1CCN(Cc2c(Cl)ccc(C(=O)C3C(=O)CC(C)(C)CC3=O)c2Cl)C1=O [Example 14] | strong activity against weeds | 
logP = 2.75^a) |  | CN1CCN(Cc2c(Cl)ccc(C(=O)C3C(=O)CCC(C)(C)C3=O)c2Cl)C1=O (stereo not shown) [Example 9] | strong activity against weeds | activity against weeds (degree of damage) (weeds [2]): strong activity against weeds
logP = 3.22^a) |  | CC(C)C1CC(=O)C(C(=O)c2ccc(Cl)c(CN3CCCN(C)C3=O)c2Cl)C(=O)C1 (stereo not shown) [Example 5] | strong activity against weeds | 
 | logP = 0.76^a) | CCCN1CCCNC1=O [(VI-15)] |  | 
logP = 3.38^a) |  | CCN1CCN(Cc2c(Cl)ccc(C(=O)C3C(=O)CC(c4ccccc4)CC3=O)c2Cl)C1=O (stereo not shown) [Example 17] | strong activity against weeds | 
 | logP = 1.73^a) | CN1CCCN(Cc2c(S(C)(=O)=O)ccc(C(=O)C3C(=O)CCCC3=O)c2Cl)C1=O [Example 41] |  | 
 | logP = 1.70^a) | CN1CCN(Cc2c(S(C)(=O)=O)ccc(C(=O)C3C(=O)CCCC3=O)c2Cl)C1=O [Example 22] |  | 
 | 0.55^a) | CCCN1CCNC1=O [(VI-5)] |  | 
 | logP = 2.69^a) | CCCN1CCN(Cc2c(Cl)ccc(C(=O)C3C(=O)CCCC3=O)c2Cl)C1=O [Example 46] |  | 

logP [1, 4] | logP [1] | SMILES | activity against weeds (degree of damage) (weeds [3]) | further results
 |  | CN1CCN(Cc2c(Cl)ccc(C(=O)C3C(=O)CCCC3=O)c2Cl)C1=O [Example 1, 2-[2,4-dichloro-3-[(3-methyl-2-oxo-imidazolidin-1-yl)-methyl]-benzoyl]-1,3-cyclohexanedione] | strong activity against weeds | activity against weeds (degree of damage) (weeds [2]): strong activity against weeds
 | logP = 2.00^a) | COc1c(C(=O)C2C(=O)CCCC2=O)ccc(Cl)c1CN1CCN(C)C1=O [Example 19] |  | 
 | logP = 2.18^a) | CCN1CCN(Cc2c(F)ccc(C(=O)C3C(=O)CCCC3=O)c2Cl)C1=O [Example 50] |  | 
 |  | CCCCN1CCN(Cc2c(Cl)ccc(C(=O)OC)c2Cl)C1=O [IV-15] |  | logP [1, 5]: logP = 3.0
logP = 3.21^a) |  | CN1CCCN(Cc2c(Cl)ccc(C(=O)C3C(=O)CC(c4ccccc4)CC3=O)c2Cl)C1=O (stereo not shown) [Example 6] | strong activity against weeds | 
logP = 2.37^a) |  | CCN1CCN(Cc2c(Cl)ccc(C(=O)C3C(=O)CCCC3=O)c2Cl)C1=O [Example 13] | strong activity against weeds | activity against weeds (degree of damage) (weeds [2]): strong activity against weeds
logP = 2.71^a) |  | CCN1CCN(Cc2c(Cl)ccc(C(=O)C3C(=O)CC(C)CC3=O)c2Cl)C1=O (stereo not shown) [Example 12] | strong activity against weeds | activity against weeds (degree of damage) (weeds [2]): strong activity against weeds
 | logP = 2.59^a) | CN1CCCN(Cc2cc(C(F)(F)F)ccc2C(=O)C2C(=O)CCCC2=O)C1=O [Example 49] |  | 
 | logP = 3.08^a) | CCCCN1CCN(Cc2c(Cl)ccc(C(=O)C3C(=O)CCCC3=O)c2Cl)C1=O [Example 47] |  | 
 | logP = 2.83^a) | CN1CCN(Cc2c(Cl)ccc(C(=O)C3C(=O)CC4(CCC4)CC3=O)c2Cl)C1=O [Example 20] |  | 
 |  | COC(=O)c1ccc(Cl)c(CN2CCN(CC(C)C)C2=O)c1Cl [IV-16] |  | logP [1, 5]: logP = 2.95
 | logP = 2.68^a) | CCN1CCN(Cc2cc(C(F)(F)F)ccc2C(=O)C2C(=O)CCCC2=O)C1=O [Example 25] |  | 
logP = 2.55^a) |  | CC1CC(=O)C(C(=O)c2ccc(Cl)c(CN3CCCN(C)C3=O)c2Cl)C(=O)C1 (stereo not shown) [Example 2] | strong activity against weeds | activity against weeds (degree of damage) (weeds [2]): strong activity against weeds
 |  | CCCN1CCN(Cc2c(Cl)ccc(C(=O)OC)c2Cl)C1=O [IV-12] |  | logP [1, 5]: logP = 2.62
 | logP = 3.07^a) | CCN1CCN(Cc2c(Cl)ccc(C(=O)C3C(=O)CCC(C)(C)C3=O)c2Cl)C1=O (stereo not shown) [Example 15] |  | 
 | logP = 2.33^a) | COC(=O)c1ccc(S(C)(=O)=O)c(CBr)c1Cl [V-2] |  | 
logP = 3.10^a) |  | CN1CCN(Cc2c(Cl)ccc(C(=O)C3C(=O)CC(c4ccccc4)CC3=O)c2Cl)C1=O (stereo not shown) [Example 11] | strong activity against weeds | 
logP = 1.96^a) |  | CN1CCN(Cc2c(F)ccc(C(=O)C3C(=O)CCCC3=O)c2Cl)C1=O [Example 24] | strong activity against weeds | activity against weeds (degree of damage) (weeds [2]): strong activity against weeds
 | logP = 3.03^a) | CC(C)CN1CCN(Cc2c(Cl)ccc(C(=O)C3C(=O)CCCC3=O)c2Cl)C1=O [Example 48] |  | 
logP = 3.40^a) |  | CCN1CCN(Cc2c(Cl)ccc(C(=O)C3C(=O)CC(C(C)C)CC3=O)c2Cl)C1=O (stereo not shown) [Example 16] | strong activity against weeds | 

SMILES | logP [1, 4] | logP [1] | activity against weeds (degree of damage) (weeds [3]) | further results
COC(=O)c1ccc(Cl)c(CN2CCCN(C)C2=O)c1Cl [IV-6] | logP = 2.07^a) |  |  | 
CCN1CCN(Cc2c(S(C)(=O)=O)ccc(C(=O)OC)c2Cl)C1=O [IV-3] | logP = 1.55^a) |  |  | 
CCN1CCN(Cc2cc(C(F)(F)F)ccc2C(=O)OC)C1=O [IV-11] | logP = 2.62^a) |  |  | 
COC(=O)c1ccc(S(C)(=O)=O)c(CN2CCN(C)C2=O)c1Cl [IV-4] | logP = 1.55^a) |  |  | 
COC(=O)c1ccc(Cl)c(CN2CCCN(C)C2=O)c1OC [IV-10] | logP = 2.03^a) |  |  | 
CCN1CCN(Cc2c(Cl)ccc(C(=O)OC)c2Cl)C1=O [IV-2] | logP = 2.26^a) |  |  | 
COC(=O)c1ccc(Cl)c(CN2CCN(C)C2=O)c1OC [IV-5] | logP = 1.92^a) |  |  | 
